Test results taken from PubChem BioAssay AID1259407 (Chemical Carcinogenesis Research Information System (CCRIS), 2018).
Active and inactive are the calls of the source. How the calls were made is not given here.

Tested on: CCRIS mutagenicity, Ames/micronucleus/aberration tests
Assay: CCRIS mutagenicity studies
[1] = Test System: AMES SALMONELLA TYPHIMURIUM, Strain/Indicator: TA100, Metabolic Activation: RAT, LIVER, S-9, AROCLOR 1254, Method: STANDARD PLATE
[2] = Test System: AMES SALMONELLA TYPHIMURIUM, Strain/Indicator: TA100, Metabolic Activation: NONE, Method: STANDARD PLATE
[3] = Test System: AMES SALMONELLA TYPHIMURIUM, Strain/Indicator: TA98, Metabolic Activation: NONE, Method: STANDARD PLATE
[4] = Test System: AMES SALMONELLA TYPHIMURIUM, Strain/Indicator: TA98, Metabolic Activation: RAT, LIVER, S-9, PHENOBARBITAL, Method: STANDARD PLATE
[5] = Test System: AMES SALMONELLA TYPHIMURIUM, Strain/Indicator: TA100, Metabolic Activation: RAT, LIVER, S-9, PHENOBARBITAL, Method: STANDARD PLATE
[6] = Test System: AMES SALMONELLA TYPHIMURIUM, Strain/Indicator: TA1537, Metabolic Activation: NONE, Method: STANDARD PLATE

Question: What does the source list for `O=S(=O)(O)c1cc(S(=O)(=O)O)c2cc(O)ccc2c1`?
Answer: mutagenic call (Test System: AMES SALMONELLA TYPHIMURIUM, Strain/Indicator: TA98, Metabolic Activation: NONE, Method: PREINCUBATION): inactive; negative; mutagenic call (Test System: AMES SALMONELLA TYPHIMURIUM, Strain/Indicator: TA98, Metabolic Activation: RAT LIVER S-9, PHENOBARBITAL AND BETA-NAPHTHOFLAVONE, Method: PREINCUBATION): inactive; negative; mutagenic call (Test System: AMES SALMONELLA TYPHIMURIUM, Strain/Indicator: TA98, Metabolic Activation: RAT, LIVER, S-9, PHENOBARBITAL, Method: PREINCUBATION): inactive; negative; mutagenic call (Test System: AMES SALMONELLA TYPHIMURIUM, Strain/Indicator: TA100, Metabolic Activation: NONE, Method: PREINCUBATION): inactive; negative; mutagenic call (Test System: AMES SALMONELLA TYPHIMURIUM, Strain/Indicator: TA100, Metabolic Activation: RAT LIVER S-9, PHENOBARBITAL AND BETA-NAPHTHOFLAVONE, Method: PREINCUBATION): inactive; negative; mutagenic call (Test System: AMES SALMONELLA TYPHIMURIUM, Strain/Indicator: TA100, Metabolic Activation: RAT, LIVER, S-9, PHENOBARBITAL, Method: PREINCUBATION): inactive; negative; mutagenic call (Test System: AMES SALMONELLA TYPHIMURIUM, Strain/Indicator: TA1535, Metabolic Activation: NONE, Method: PREINCUBATION): inactive; negative; mutagenic call (Test System: AMES SALMONELLA TYPHIMURIUM, Strain/Indicator: TA1535, Metabolic Activation: RAT LIVER S-9, PHENOBARBITAL AND BETA-NAPHTHOFLAVONE, Method: PREINCUBATION): inactive; negative; mutagenic call (Test System: AMES SALMONELLA TYPHIMURIUM, Strain/Indicator: TA1537, Metabolic Activation: NONE, Method: PREINCUBATION): inactive; negative; mutagenic call (Test System: AMES SALMONELLA TYPHIMURIUM, Strain/Indicator: TA1537, Metabolic Activation: RAT LIVER S-9, PHENOBARBITAL AND BETA-NAPHTHOFLAVONE, Method: PREINCUBATION): inactive; negative; mutagenic call (Test System: AMES SALMONELLA TYPHIMURIUM, Strain/Indicator: TA1538, Metabolic Activation: NONE, Method: PREINCUBATION): inactive; negative; mutagenic call (Test System: AMES SALMONELLA TYPHIMURIUM, Strain/Indicator: TA1538, Metabolic Activation: RAT LIVER S-9, PHENOBARBITAL AND BETA-NAPHTHOFLAVONE, Method: PREINCUBATION): inactive; negative; mutagenic call (Test System: E.COLI, Strain/Indicator: WP2UVRA, Metabolic Activation: NONE, Method: PREINCUBATION): inactive; negative; mutagenic call (Test System: E.COLI, Strain/Indicator: WP2UVRA, Metabolic Activation: RAT LIVER S-9, PHENOBARBITAL AND BETA-NAPHTHOFLAVONE, Method: PREINCUBATION): inactive; negative

Question: Which mutagenic call (Test System: AMES SALMONELLA TYPHIMURIUM, Strain/Indicator: TA98, Metabolic Activation: RAT, LIVER, S-9, AROCLOR 1254, Method: STANDARD PLATE) does the source give for `c1ccc2c(c1)cc1ccc3cccc4ncc2c1c34` here?
Answer: Its mutagenic call is “active; positive”.

Question: What about the mutagenic call [1] of the same molecule?
Answer: Its mutagenic call is “active; positive”.

Question: Which mutagenic call (Test System: Mouse lymphoma, Strain/Indicator: L5178Y (tk+/tk-), Metabolic Activation: None, Method: Suspension/plate) does the source give for `O=S(=O)(O)c1ccc(-c2nnc(-c3ccccn3)nc2-c2ccc(S(=O)(=O)O)cc2)cc1` here?
Answer: Its mutagenic call is “inactive; negative”.

Question: And the mutagenic call (Test System: Mouse lymphoma, Strain/Indicator: L5178Y (tk+/tk-), Metabolic Activation: Rat, Liver, S-9, Aroclor 1254, Method: Suspension/plate)?
Answer: Its mutagenic call is “inactive; negative”.

Question: With `O=C(CBr)Nc1ccccc1` as the molecule, how does the mutagenic call (Test System: AMES SALMONELLA TYPHIMURIUM, Strain/Indicator: TA100, Metabolic Activation: MOUSE, LIVER, S-9, AROCLOR 1254, Method: STANDARD PLATE) read?
Answer: The mutagenic call was “inactive; negative”.

Question: What about the mutagenic call [2] of the same molecule?
Answer: The mutagenic call was “inactive; negative”.

Question: Which mutagenic call [3] does the source give for `Cn1c2ccccc2c(=O)c2c(O)cc3c(c21)CC(C1(C)CO1)O3` (stereo unspecified) here?
Answer: Its mutagenic call is “active; positive”.

Question: What about the mutagenic call (Test System: AMES SALMONELLA TYPHIMURIUM, Strain/Indicator: TA98, Metabolic Activation: RAT, LIVER, S-9, 3-METHYLCHOLANTHRENE, Method: STANDARD PLATE) of the same molecule?
Answer: The mutagenic call was “active; positive”.

Question: What about the mutagenic call [4] of the same molecule?
Answer: The mutagenic call was “active; positive”.

Question: And the mutagenic call (Test System: AMES SALMONELLA TYPHIMURIUM, Strain/Indicator: TA98, Metabolic Activation: RAT, LIVER, S-9, Method: STANDARD PLATE)?
Answer: Its mutagenic call is “active; positive”.

Question: And the mutagenic call [2]?
Answer: Its mutagenic call is “active; positive”.

Question: And the mutagenic call (Test System: AMES SALMONELLA TYPHIMURIUM, Strain/Indicator: TA100, Metabolic Activation: RAT, LIVER, S-9, 3-METHYLCHOLANTHRENE, Method: STANDARD PLATE)?
Answer: Its mutagenic call is “active; positive”.

Question: And the mutagenic call [5]?
Answer: The mutagenic call was “active; positive”.

Question: What about the mutagenic call (Test System: AMES SALMONELLA TYPHIMURIUM, Strain/Indicator: TA100, Metabolic Activation: RAT, LIVER, S-9, Method: STANDARD PLATE) of the same molecule?
Answer: Its mutagenic call is “active; positive”.

Question: What does the source list for `OCc1cc2ccccc2c2ccc3ccccc3c12`?
Answer: mutagenic call (Test System: AMES SALMONELLA TYPHIMURIUM, Strain/Indicator: TA98, Metabolic Activation: RAT, LIVER, CYTOSOL AND PAPS GENERATING SYSTEM, Method: PREINCUBATION): active; positive; mutagenic call (Test System: AMES SALMONELLA TYPHIMURIUM, Strain/Indicator: TA98, Metabolic Activation: RAT, LIVER, S-9 AND NADPH GENERATING SYSTEM, Method: PREINCUBATION): inactive; negative

Question: With `Fc1ccc2ncccc2c1` as the molecule, how does the mutagenic call (End Point: In vitro chromosomal aberrations, Test System: Chinese hamster lung fibroblast cells (CHL/IU), Metabolic Activation: Rat, liver, S-9) read?
Answer: The mutagenic call was “active; positive, toxicity at 0.1 mg/ml. (information derived from a figure)”.

Question: And the mutagenic call (End Point: In vitro micronucleus, Test System: Chinese hamster lung fibroblast cells (CHL/IU), Metabolic Activation: Rat, liver, S-9)?
Answer: Its mutagenic call is “active; positive, cytotoxic at 0.2 mg/ml (information derived from a figure)”.

Question: What about the mutagenic call (Test System: AMES SALMONELLA TYPHIMURIUM, Strain/Indicator: TA100, Metabolic Activation: RAT LIVER S-9, PHENOBARBITAL AND 5,6-BENZOFLAVONE, Method: PREINCUBATION) of the same molecule?
Answer: The mutagenic call was “active; positive”.

Question: What about the mutagenic call (Test System: AMES SALMONELLA TYPHIMURIUM, Strain/Indicator: TA100, Metabolic Activation: RAT, LIVER, S-9, AROCLOR 1254, Method: PREINCUBATION) of the same molecule?
Answer: Its mutagenic call is “active; positive”.

Question: What about the mutagenic call (Test System: AMES SALMONELLA TYPHIMURIUM, Strain/Indicator: TA100, Metabolic Activation: RAT, LIVER, S-9, PHENOBARBITAL AND 5,6-BENZOFLAVONE, Method: PREINCUBATION) of the same molecule?
Answer: The mutagenic call was “active; positive”.

Question: What about the mutagenic call (Test System: AMES SALMONELLA TYPHIMURIUM, Strain/Indicator: TA100, Metabolic Activation: RAT, LIVER, S-9, PHENOBARBITAL AND 5,6-NAPHTHOFLAVONE, Method: PREINCUBATION) of the same molecule?
Answer: The mutagenic call was “active; positive”.

Question: And the mutagenic call (Test System: UDS RODENT HEPATOCYTES, Strain/Indicator: THY INCORP (NON-S-PHASE), Metabolic Activation: NONE, Method: AUTORADIOGRAPHY)?
Answer: The mutagenic call was “active; positive”.

Question: `Nc1ccc2c(c1)[nH]c1ccccc12` was tested. Which mutagenic call [3] did it give?
Answer: The mutagenic call was “active; positive”.

Question: What about the mutagenic call [4] of the same molecule?
Answer: The mutagenic call was “active; positive”.

Question: What about the mutagenic call [2] of the same molecule?
Answer: Its mutagenic call is “inactive; negative”.

Question: What about the mutagenic call [5] of the same molecule?
Answer: Its mutagenic call is “active; positive”.

Question: What about the mutagenic call [6] of the same molecule?
Answer: Its mutagenic call is “inactive; negative”.

Question: And the mutagenic call (Test System: AMES SALMONELLA TYPHIMURIUM, Strain/Indicator: TA1538, Metabolic Activation: NONE, Method: STANDARD PLATE)?
Answer: Its mutagenic call is “active; positive”.

Question: And the mutagenic call (Test System: AMES SALMONELLA TYPHIMURIUM, Strain/Indicator: TA1538, Metabolic Activation: RAT, LIVER, S-9, PHENOBARBITAL, Method: STANDARD PLATE)?
Answer: Its mutagenic call is “active; positive”.

Question: What about the mutagenic call (Test System: AMES SALMONELLA TYPHIMURIUM, Strain/Indicator: TA1977, Metabolic Activation: NONE, Method: STANDARD PLATE) of the same molecule?
Answer: Its mutagenic call is “inactive; negative”.

Question: What about the mutagenic call (Test System: AMES SALMONELLA TYPHIMURIUM, Strain/Indicator: TA1977, Metabolic Activation: RAT, LIVER, S-9, PHENOBARBITAL, Method: STANDARD PLATE) of the same molecule?
Answer: Its mutagenic call is “inactive; negative”.

Question: How did the mutagenic call [2] turn out when `Cc1ncc([N+](=O)[O-])n1CC(=O)O` was run?
Answer: The mutagenic call was “active; positive”.

Question: What about the mutagenic call [1] of the same molecule?
Answer: The mutagenic call was “inactive; negative”.

Question: Which mutagenic call [3] does the source give for `CC(=O)Nc1snc2c(Cl)cc(Cl)cc12` here?
Answer: The mutagenic call was “inactive; negative”.

Question: What about the mutagenic call (Test System: AMES SALMONELLA TYPHIMURIUM, Strain/Indicator: TA98, Metabolic Activation: S-9, Method: STANDARD PLATE) of the same molecule?
Answer: Its mutagenic call is “inactive; negative”.

Question: What about the mutagenic call [2] of the same molecule?
Answer: Its mutagenic call is “inactive; negative”.

Question: What about the mutagenic call (Test System: AMES SALMONELLA TYPHIMURIUM, Strain/Indicator: TA100, Metabolic Activation: S-9, Method: STANDARD PLATE) of the same molecule?
Answer: Its mutagenic call is “inactive; negative”.

Question: What about the mutagenic call (Test System: AMES SALMONELLA TYPHIMURIUM, Strain/Indicator: TA1535, Metabolic Activation: NONE, Method: STANDARD PLATE) of the same molecule?
Answer: The mutagenic call was “inactive; negative”.

Question: And the mutagenic call (Test System: AMES SALMONELLA TYPHIMURIUM, Strain/Indicator: TA1535, Metabolic Activation: S-9, Method: STANDARD PLATE)?
Answer: Its mutagenic call is “inactive; negative”.

Question: What about the mutagenic call [6] of the same molecule?
Answer: The mutagenic call was “inactive; negative”.

Question: What about the mutagenic call (Test System: AMES SALMONELLA TYPHIMURIUM, Strain/Indicator: TA1537, Metabolic Activation: S-9, Method: STANDARD PLATE) of the same molecule?
Answer: Its mutagenic call is “inactive; negative”.
